Columns and labels:
Format in all cases: cell-based
Penicillium brevicaule = test: Minimum inhibitory concentration (MIC) on malt extract agar; settings: 2 weeks incubation at 28° C., 60 to 70% relative atmospheric humidity
Method: (§1) The MIC was determined after 2 weeks of incubation at 28° C. and 60 to 70% relative atmospheric humidity. The MIC is the lowest concentration of active compound at which there is no colonization by the microbial species used; it is indicated in Table 2.

Aspergillus niger = test: as above; settings: 2 weeks incubation at 28° C., 60 to 70% relative atmospheric humidity
Method: as §1

Chaetomium globosum = test: as above; settings: 2 weeks incubation at 28° C., 60 to 70% relative atmospheric humidity
Method: as §1

[1] = test system: mold fungi (Alternaria tenuis, Aspergillus flavus, Aspergillus niger, Aspergillus ustus, Cindosporum herbarum, Paecilomyces variotii, Penicillium citrium …); test: Test of dispersion coatings for resistance to mold; settings: coatings according to recipe A containing 1.5% (based on solids) of compound; even after rinsing out and wind tunnel exposure; 2-3 weeks storage, 29±1° C., 80-90% rel. humidity
Method: To test dispersion coatings for resistance to mold, the following procedure was adopted:
The paint to be tested was applied to both sides of a suitable base. To obtain results which are close to practice, some of the test specimens were rinsed out with running water (24 h, 20° C.) before the test for mold resistance; others were treated with a current of warm fresh air (7 days, 40° C.).
The samples prepared in this way were then placed on an agar nutrient medium, and both samples and nutrient medium were contaminated with fungal spores. After 2-3 weeks storage (29±1° C., 80-90% rel. atmospheric humidity), the samples were compared.
The coating is considered to be permanently mold-resistant if the sample remains free from fungus or at most a slight border infestation can be detected.
For the contamination, fungal spores of the following mold fungi were used, which are known as paint destroyers or are frequently encountered on coatings: • Alternaria tenuis • Aspergillus flavus • Aspergillus niger • Aspergillus ustus • Cindosporum herbarum • Paecilomyces variotii • Penicillium citrium • Aureobasidium pullulans • Stachybotrys chartarum
Recipe A: Exterior dispersion paint based on Acroal 290 D (styrene acrylate)

SMILES	Minimum inhibitory concentrations Penicillium brevicaule (Penicillium brevicaule)	Minimum inhibitory concentrations Aspergillus niger (Aspergillus niger)	Minimum inhibitory concentrations Chaetomium globosum (Chaetomium globosum)	Mold resistance of coating [1]
CC1CN=C(Sc2ccccc2)SC1 (centres unmarked) [Example 11]	<50 ppm	<50 ppm	<50 ppm	
COc1cccc(SC2=NCCC(C)S2)c1 (centres unmarked) [Example 67]	<100 ppm	<200 ppm	<100 ppm	
c1ccc(SC2=NC3CCCC3CS2)cc1 (centres unmarked) [Example 81]	200 ppm		<100 ppm	
CC1CCN=C(Sc2ccccc2)S1 (centres unmarked) [Example 62]	<50 ppm	<100 ppm	<100 ppm	
CC1(C)CN=C(Sc2cccc(F)c2)SC1 [Example 51]	<200 ppm	200 ppm	<200 ppm	
COc1ccc(SC2=NCC(C)CS2)cc1 (centres unmarked) [Example 1]	<100 ppm	<200 ppm	<100 ppm	
COc1ccc(SC2=NC3CCCCC3CS2)cc1 (centres unmarked) [Example 4]			100 ppm	
CC1(C)CCSC(Sc2ccc(Cl)cc2)=N1 [Example 61]			200 ppm	
CC1CN=C(Sc2ccc(Cl)cc2)SC1 (centres unmarked) [Example 6]	20 ppm	50 ppm	20 ppm	
COc1ccc(SC2=NCC(C)(C)CS2)cc1 [Example 47]				mold resistant
CC1(C)CN=C(Sc2cccs2)SC1 [Example 45]	<50 ppm	<200 ppm	<50 ppm	
Cc1ccc(SC2=NC3CCCC3CS2)cc1 (centres unmarked) [Example 82]			100 ppm	
c1csc(SC2=NC3CCCC3CS2)c1 (centres unmarked) [Example 79]	100 ppm		<100 ppm	

From patent publication US20060089352A1, “Substituted thiazines as material protecting agents” (priority 2002, published 2006)
